Reference: patent publication US20250170108A1, “CHEMOTHERAPY FOR CANCER USING AZABICYCLO COMPOUND” (TAIHO PHARMACEUTICAL CO., LTD., priority 2017, published 2025)

Legend:
[1] = tested on: mouse bowel cancer cell line MC38; experiment: Antitumor effect of Compound 1 and anti-mouse PD-1 antibody in bowel cancer cell transplanted model (Example 1); format: in vivo; conditions: for RTV Day 22 (mean ± SD): MC38 transplanted mice; for T/C (%): Day 22
Description: (§1) Mouse bowel cancer cell line MC38 was obtained from Dr. Yoshihiro Hayakawa (University of Toyama, Toyama, Japan), and cultured in a RPMI1640 (Sigma-Aldrich) medium (culture solution) containing 10% fetal bovine serum (FBS). MC38 was subcultured at a ratio of 1:3 to 1:5 once or twice a week in an incubator with 5% CO2 at 37° C.
(§2) A cell suspension with a concentration of 2×10^6 cells/0.1 mL was transplanted subcutaneously in the vicinity of the right backmost rib bone of a 6-week-old C57BL/6JJcI mouse (CLEA Japan, Inc.).
(§3) The tumor was grown until reaching a tumor volume (TV) of 50 to 300 mm^3 after the transplantation. Degimatic Caliper was used for tumor diameter measurement. The major diameter and the minor diameter of the tumor were measured, and TV was calculated from the following equation.
(§4) By a stratified random allocation method using TV as an index, 6 animals were allocated to each group. The day when grouping (n=6) was performed was defined as Day 0.
(§5) The relative tumor volume (RTV) and the relative tumor volume change ratio (T/C) were calculated from TV.
RTV and T/C were calculated from the following equation.
(§6) An appropriate amount of water for injection described in the Japanese Pharmacopeia was added for adjusting hypromellose concentration to 0.5 w/v %, and the mixture was then stirred with a stirrer to completely dissolve hypromellose, to prepare a 0.5% aqueous hypromellose solution. Compound 1 was ground with an agate mortar, and then suspended to a predetermined concentration with the 0.5% aqueous hypromellose solution, and ultrasonic treatment was performed to obtain a homogeneous suspension. The suspension containing Compound 1 was orally administered once a day over 5 consecutive days at a dose of 10 mg/kg/day or 14 mg/kg/day, followed by cessation of administration for 2 days, and these processes were repeated three times.
(§7) The anti-mouse PD-1 antibody (anti-mPD-1 Ab) was prepared by diluting InVivoMab anti-mouse PD-1 (CD279) (Clone: RMP-1-14, Bio X cell Co.) to a predetermined concentration with Otsuka Normal Saline immediately before administration. On the first day of administration (day 1), the diluted product was intraperitoneally administered as the anti-mouse PD-1 antibody at a dose of 0.05 mg/body.

[2] = tested on: tumor infiltrating leucocytes (CD8 positive cells, regulatory T-cells); experiment: Immunostimulatory action: flow cytometric analysis of tumor infiltrating lymphocytes in MC38 transplanted model (Example 2); format: in vivo, mouse
Description: Mouse bowel cancer cell line MC38 was cultured using a RPMI1640 (Waco Pure Chemical Industries, Ltd.) medium containing 10% FBS. MC38 was subcultured at a ratio of 1:5 to 1:10 once or twice a week in an incubator with 5% CO2 at 37° C.
A cell suspension with a concentration of 2×10^6 cells/0.1 mL was transplanted subcutaneously in the vicinity of the right backmost rib bone of a 6-week-old C57BL/6NJCrI mouse (Charles River Laboratories Japan Inc.).
The tumor was grown until reaching a tumor volume (TV) of 110 to 360 mm^3 after the transplantation. Degimatic Caliper was used for tumor diameter measurement. The major diameter and the minor diameter of the tumor were measured, and TV was calculated from the following equation.
By a stratified random allocation method using TV as an index, 5 animals were allocated to each group. The day when grouping (n=5) was performed was defined as Day 1.
Agents prepared by the same method as described in Example 1 were used for administration. Anti-mouse PD-1 antibody (anti-mPD-1 Ab), CD279(PD-1)Monoclonal Antibody (RMP1-14), eBioscience (Thermo Fisher Scientific), was used as an anti-mouse PD-1 antibody, and intraperitoneally administered at a dose of 0.05 mg/body on the first day of administration (Day 1). Compound 1 was orally administered at a dose of 14 mg/kg/day once a day on Days 1-5 and 8-9.
For detecting expression of immunity-related factors, flow cytometric analysis was performed for immunological monitoring. On Day 10, the tumor was sampled, and tumor infiltrating lymphocytes were then prepared using Tumor Dissociation Kit, mouse (Miltenyi Biotec). Thereafter, the antibody was stained using FoxP3/Transcription Factor Staining Buffer Set (thermo Fisher Scientific), and analysis was then performed using Flow Cytometer FACSVerse (BD Bioscience). […]

[3] = Body weight change ratio in MC38 transplanted model (Example 1); format: in vivo, mouse
Description: (§8) An electronic balance for animals was used for body weight measurement. The body weight change ratio on the nth day (BWCn) was calculated from the body weight on the nth day (BWn) in accordance with the following equation.
as §6, §7

[4] = tested on: mouse bowel cancer cell line MC38; experiment: Antitumor effect of Compound 1 and anti-mouse PD-L1 or anti-mouse CTLA-4 antibody in bowel cancer cell transplanted model (Example 3); format: in vivo
Description: as §1, §2, §3, §4, §5, §6
The same procedure as described in Example 1 was carried out except that the anti-mouse PD-L1 antibody or the anti-CTLA-4 antibody was used instead of the anti-mouse PD-1 antibody. […]

[5] = Body weight change ratio in MC38 transplanted model (Example 3); format: in vivo, mouse; conditions: Compound 1 14 mg/kg/day p.o. days 1-5, 8-12, 15-19
Description: as §8
The same procedure as described in Example 1 was carried out except that the anti-mouse PD-L1 antibody or the anti-CTLA-4 antibody was used instead of the anti-mouse PD-1 antibody.
The anti-mouse PD-L1 antibody (anti-mPD-L1 Ab) was prepared by diluting InVivoMab anti-mouse PD-L1 (B7-H1) (Clone: 10F.9G2, Bio X cell Co.) to a predetermined concentration with Otsuka Normal Saline immediately before administration. On the first day of administration (day 1), the diluted product was intraperitoneally administered using the anti-mouse PD-L1 antibody at a dose of 0.05 mg/body. The anti-mouse CTLA-4 antibody (anti-mCTLA-4 Ab) was prepared by diluting InVivoMab anti-mouse CTLA-4 (CD152) (Clone: 9H10, Bio X cell Co.) to a predetermined concentration with Otsuka Normal Saline immediately before administration. On the first day of administration (day 1), the diluted product was intraperitoneally administered using the anti-mouse CTLA-4 antibody at a dose of 0.05 mg/body.

[6] = Compound 1 10 mg/kg/day p.o. days 1-5, 8-12, 15-19
[7] = Compound 1 14 mg/kg/day p.o. days 1-5, 8-12, 15-19
[8] = Day 10, Compound 1 14 mg/kg/day p.o. Days 1-5 and 8-9, Dunnett test

With `CCc1cc(C(N)=O)ccc1-n1nc(C(C)C)c2c(-n3cnc(-c4cnn(C)c4)c3)ccnc21` [Compound 1, 3-ethyl-4-{3-isopropyl-4-(4-(1-methyl-1H-pyrazol-4-yl)-1H-imidazol-1-yl)-1H-pyrazolo[3,4-b]pyridin-1-yl}benzamide] the “RTV on Day 22 as compared to the control group” value ([1]; Aspin-Welch's t-test, Example 1) was “significantly lower RTV”, the “RTV Day 22 (mean ± SD)” value [1, 6] was 7.93 ± 1.29 and the “RTV Day 22 (mean ± SD)” value [1, 7] was 5.59 ± 0.92. For the same compound, the “T/C (%)” value [1, 6] was 41.7%, the “T/C (%)” value [1, 7] was 29.4% and the “ratio of CD8 positive cells in leucocytes (CD45 positive cells) as compared to the control group” value [2, 8] was “significantly higher”. For the same compound, the “ratio of regulatory T-cells in T-cells as compared to the control group” value [2, 8] was “significantly lower”, the immunostimulatory activity ([2]; conclusion from Example 2) was “shows immunostimulatory activity” and the “BWC(%) Day 22 Mean” value [3, 6] was 13.5%. For the same compound, the “BWC(%) Day 22 Mean” value [3, 7] was 12.8%, the “RTV on Day 22 as compared to the control group” value ([4]; Aspin-Welch's t-test, Example 3) was “significantly lower RTV” and the “RTV Day 22 (mean ± SE)” value ([4]; Compound 1 14 mg/kg/day p.o. days 1-5, 8-12, 15-19, MC38 transplanted mice) was 8.32 ± 0.51. For the same compound, the “T/C (%)” value ([4]; Day 22, Compound 1 14 mg/kg/day p.o. days 1-5, 8-12, 15-19) was 49.7% and the “BWC(%) Day 22 Mean” value [5] was 6.63%.
